Measurements: patent US10874745B2, “Antimicrobial peptides and methods of treating gram-negative pathogens: polar and non-polar face analogs” (priority 2017, dated 2020)
In brackets after ≈: the same amount, converted by molar mass. Several values for one entry are separate records, joined by “and”; a condition that tells them apart may be missing. Identical values can stand only once. Like-named read-outs stand apart in the source and are kept apart here. Non-standard residues stand in square brackets, D forms with d. Residues, ends and D or L forms follow the SMILES beside them. *: point of attachment. MeO(CH2CH2O)23CH2CH2CO = COCCOCCOCCOCCOCCOCCOCCOCCOCCOCCOCCOCCOCCOCCOCCOCCOCCOCCOCCOCCOCCOCCOCCOCCC(=O)*; dDab = NCC[C@@H](N)C(=O)O; dDap = NC[C@@H](N)C(=O)O

Legend:
[1] = system: A. baumannii strains resistant to Polymyxin B and Colistin; format: cell-based
Description: Gram-Negative Bacterial Strains used in this Study: All the A. baumannii strains used in this study were 1) obtained from the collection of Dr. Anthony A. Campagnari at the University of Buffalo and originally isolated from different patients and organs/tissues (strain 649, blood; strain 689, groin; strain 759, gluteus; strain 884, axilla; strain 985, pleural fluid); 2) were purchased from the American Type Culture Collection (ATCC, Manassas, Va., USA) (strain ATCC 17978, fatal meningitis; and strain ATCC 19606, urine); 3) obtained from MERCK (M89941, M89949, M89951, M89952, M89953, M89955 and M89963). These seven A. baumannii strains were resistant to polymyxin B and polymyxin E (Colistin).
Measurement of Antimicrobial Activity (MIC): The minimal inhibitory concentration (MIC) is defined as the lowest peptide concentration that inhibited bacterial growth. MICs were measured by a standard microtiter dilution method in Mueller Hinton (MH) medium. Briefly, cells were grown overnight at 37° C. in MH broth and were diluted in the same medium. […] The plates were incubated at 37° C. for 24 h, and the MICs were determined.

Hemolytic activity = format: cell-based, human; conditions: 1% human erythrocytes (red blood cells), pH 7.4
Experimental: (§1) Hemoglobin release was determined spectrophotometrically at 570 nm. […] […] […] With the peptides used in this study the inventors used the HC30/MIC ratio value to calculate the therapeutic index.

human red blood cells = assay: Hemolytic activity; format: cell-based; conditions: for Hemolytic activity HC30: 18 h
Experimental: as §1

A. baumannii strain 649 = format: cell-based, Acinetobacter baumannii
Description: A critical component to the systemic use of AMPs to treat bacterial infections is the extent of AMP binding to serum proteins. In addition, since only the unbound AMP is available to interact with the therapeutic target, the extent of serum binding can have significant effects on efficacy. […] This assay estimates the in vivo bioavailability of the AMPs. […] An increase in MIC in serum is attributed to inhibition of antimicrobial activity due to serum protein binding.

[2] = 50% hemolysis of human red blood cells after 18 hours at 37° C., read-out: HC50
[3] = 50% hemolysis of human red blood cells after 18 hours at 37° C.

Structure (SMILES) | MIC ([1]; strain MB9941 (Table 9C)) | MIC ([1]; strain MB9949 (Table 9C)) | MIC ([1]; strain MB9951 (Table 9C)) | MIC ([1]; strain MB9952 (Table 9C)) | MIC ([1]; strain MB9953 (Table 9C)) | MIC ([1]; strain MB9955 (Table 9C)) | MIC ([1]; strain MB9963 (Table 9C)) | HC50 at 18 h (Hemolytic activity; human) | HC50 (human red blood cells) | MIC, 25% human serum (A. baumannii strain 649) | MIC, No serum (A. baumannii strain 649) | Hemolytic activity HC30 (human red blood cells) | HC50 at 18 h (Hemolytic activity; [2]) | HC50 (human red blood cells; [3]) | Hemolysis of human red blood cells, in words (human red blood cells; FIG. 10)
CC(=O)N[C@H](CCCCN)C(=O)N[C@H](CC(C)C)C(=O)N[C@H](CCCCN)C(=O)N[C@H](CO)C(=O)N[C@H](CC(C)C)C(=O)N[C@H](CC(C)C)C(=O)N[C@H](CCCCN)C(=O)N[C@@H](C(=O)N[C@H](CC(C)C)C(=O)N[C@H](CO)C(=O)N[C@H](C)C(=O)N[C@H](C)C(=O)N[C@H](CCCCN)C(=O)N[C@H](CCCCN)C(=O)N[C@H](CCCCN)C(=O)N[C@H](CCCCN)C(=O)N[C@H](CC(C)C)C(=O)N[C@H](C)C(=O)N[C@@H](C(=O)N[C@H](CC(C)C)C(=O)N[C@H](CC(C)C)C(=O)N[C@H](CCCCN)C(=O)N[C@H](C)C(=O)N[C@H](CC(C)C)C(=O)N[C@H](CO)C(=O)N[C@H](CCCCN)C(N)=O)[C@H](C)O)[C@H](C)O [Peptide D88, Ac-KL(Lys)SLL(Lys)TLSAAK(Lys)(Lys)KLATLL(Lys)ALS(Lys)-amide] (Ac-[dK][dL][dK][dS][dL][dL][dK][dT][dL][dS][dA][dA][dK][dK][dK][dK][dL][dA][dT][dL][dL][dK][dA][dL][dS][dK]-NH2) | 0.7 µM (≈ 2.01 µg/mL) | 0.7 µM (≈ 2.01 µg/mL) | 0.3 µM (≈ 0.86 µg/mL) | 0.3 µM (≈ 0.86 µg/mL) | 0.3 µM (≈ 0.86 µg/mL) | 0.3 µM (≈ 0.86 µg/mL) | 0.3 µM (≈ 0.86 µg/mL) | 231 µg/mL and 80.6 µM | 80.6 µM |  |  |  |  |  | 
CC(=O)N[C@H](C)C(=O)N[C@H](CC(C)C)C(=O)N[C@H](CCCCN)C(=O)N[C@H](CO)C(=O)N[C@H](CC(C)C)C(=O)N[C@H](CC(C)C)C(=O)N[C@H](C)C(=O)N[C@@H](C(=O)N[C@H](CC(C)C)C(=O)N[C@H](CO)C(=O)N[C@H](CCCCN)C(=O)N[C@H](C)C(=O)N[C@H](C)C(=O)N[C@H](CCCCN)C(=O)N[C@H](CCCCN)C(=O)N[C@H](C)C(=O)N[C@H](CC(C)C)C(=O)N[C@H](CCCCN)C(=O)N[C@@H](C(=O)N[C@H](CC(C)C)C(=O)N[C@H](CC(C)C)C(=O)N[C@H](C)C(=O)N[C@H](C)C(=O)N[C@H](CC(C)C)C(=O)N[C@H](CO)C(=O)N[C@H](CCCCN)C(N)=O)[C@H](C)O)[C@H](C)O [Peptide D39] |  |  |  |  |  |  |  |  |  | >92.8 µM | 1.4 µM (≈ 3.77 µg/mL) | 2.8 µM |  |  | 
CC(=O)N[C@H](C)C(=O)N[C@H](CC(C)C)C(=O)N[C@H](CCCCN)C(=O)N[C@H](CO)C(=O)N[C@H](CC(C)C)C(=O)N[C@H](CC(C)C)C(=O)N[C@H](C)C(=O)N[C@@H](C(=O)N[C@H](CC(C)C)C(=O)N[C@H](CO)C(=O)N[C@H](CCCCN)C(=O)N[C@H](C)C(=O)N[C@H](CCCCN)C(=O)N[C@H](CCCCN)C(=O)N[C@H](CCCCN)C(=O)N[C@H](CCCCN)C(=O)N[C@H](CC(C)C)C(=O)N[C@H](CCCCN)C(=O)N[C@@H](C(=O)N[C@H](CC(C)C)C(=O)N[C@H](CC(C)C)C(=O)N[C@H](C)C(=O)N[C@H](C)C(=O)N[C@H](CC(C)C)C(=O)N[C@H](CO)C(=O)N[C@H](CCCCN)C(N)=O)[C@H](C)O)[C@H](C)O [Peptide D35] |  |  |  |  |  |  |  |  |  | 1.4 µM (≈ 3.93 µg/mL) | 0.4 µM (≈ 1.12 µg/mL) | 30 µM |  |  | 
COCCOCCOCCOCCOCCOCCOCCOCCOCCOCCOCCOCCOCCOCCOCCOCCOCCOCCOCCOCCOCCOCCOCCOCCC(=O)N[C@H](CCCCN)C(=O)N[C@H](CC(C)C)C(=O)N[C@H](CCN)C(=O)N[C@H](CO)C(=O)N[C@H](CC(C)C)C(=O)N[C@H](CC(C)C)C(=O)N[C@H](CCN)C(=O)N[C@@H](C(=O)N[C@H](CC(C)C)C(=O)N[C@H](CO)C(=O)N[C@H](CCN)C(=O)N[C@H](C)C(=O)N[C@H](CCCCN)C(=O)N[C@H](C)C(=O)N[C@H](C)C(=O)N[C@H](CCCCN)C(=O)N[C@H](CC(C)C)C(=O)N[C@H](CCN)C(=O)N[C@@H](C(=O)N[C@H](CC(C)C)C(=O)N[C@H](CC(C)C)C(=O)N[C@H](CCN)C(=O)N[C@H](C)C(=O)N[C@H](CC(C)C)C(=O)N[C@H](CO)C(=O)N[C@H](CCN)C(N)=O)[C@H](C)O)[C@H](C)O [Peptide D86PEG1, m-dPEG24-D86] ({MeO(CH2CH2O)23CH2CH2CO}-[dK][dL][dDab][dS][dL][dL][dDab][dT][dL][dS][dDab][dA][dK][dA][dA][dK][dL][dDab][dT][dL][dL][dDab][dA][dL][dS][dDab]-NH2) | 1.1 µM (≈ 4.13 µg/mL) | 2.1 µM (≈ 7.88 µg/mL) | 4.1 µM (≈ 15.4 µg/mL) | 4.1 µM (≈ 15.4 µg/mL) | 8.3 µM (≈ 31.2 µg/mL) | 1.1 µM (≈ 4.13 µg/mL) | 4.1 µM (≈ 15.4 µg/mL) |  |  |  |  |  | 363 µg/mL and 137 µM | 136.7 µM | 
CC(=O)N[C@H](CCCCN)C(=O)N[C@H](CC(C)C)C(=O)N[C@H](CCN)C(=O)N[C@H](CO)C(=O)N[C@H](CC(C)C)C(=O)N[C@H](CC(C)C)C(=O)N[C@H](CCN)C(=O)N[C@@H](C(=O)N[C@H](CC(C)C)C(=O)N[C@H](CO)C(=O)N[C@H](CCN)C(=O)N[C@H](C)C(=O)N[C@H](CCCCN)C(=O)N[C@H](C)C(=O)N[C@H](C)C(=O)N[C@H](CCCCN)C(=O)N[C@H](CC(C)C)C(=O)N[C@H](CCN)C(=O)N[C@@H](C(=O)N[C@H](CC(C)C)C(=O)N[C@H](CC(C)C)C(=O)N[C@H](CCN)C(=O)N[C@H](C)C(=O)N[C@H](CC(C)C)C(=O)N[C@H](CO)C(=O)N[C@H](CO)C(N)=O)[C@H](C)O)[C@H](C)O [Peptide D102, Ac-KL(Dbu)SLL(Dbu)TLS(Dbu)AKAAKL(Dbu)TLL(Dbu)ALSS-amide] (Ac-[dK][dL][dDab][dS][dL][dL][dDab][dT][dL][dS][dDab][dA][dK][dA][dA][dK][dL][dDab][dT][dL][dL][dDab][dA][dL][dS][dS]-NH2) |  |  |  |  |  |  |  |  |  |  |  |  | > 2000 µg/mL and > 708 µM |  | basically no hemolysis
CC(=O)N[C@H](CCCCN)C(=O)N[C@H](CC(C)C)C(=O)N[C@H](CCN)C(=O)N[C@H](CO)C(=O)N[C@H](CC(C)C)C(=O)N[C@H](CC(C)C)C(=O)N[C@H](CCN)C(=O)N[C@@H](C(=O)N[C@H](CC(C)C)C(=O)N[C@H](CO)C(=O)N[C@H](CCN)C(=O)N[C@H](C)C(=O)N[C@H](CCCCN)C(=O)N[C@H](C)C(=O)N[C@H](C)C(=O)N[C@H](CCCCN)C(=O)N[C@H](CC(C)C)C(=O)N[C@H](CCN)C(=O)N[C@@H](C(=O)N[C@H](CC(C)C)C(=O)N[C@H](CC(C)C)C(=O)N[C@H](CCN)C(=O)N[C@H](C)C(=O)N[C@H](CC(C)C)C(=O)N[C@H](CO)C(=O)N[C@H](CCN)C(N)=O)[C@H](C)O)[C@H](C)O [Peptide D86, Ac-KL(Dbu)SLL(Dbu)TLS(Dbu)AKAAKL(Dbu)TLL(Dbu)ALS(Dbu)-amide] (Ac-[dK][dL][dDab][dS][dL][dL][dDab][dT][dL][dS][dDab][dA][dK][dA][dA][dK][dL][dDab][dT][dL][dL][dDab][dA][dL][dS][dDab]-NH2) | 0.7 µM (≈ 1.89 µg/mL) | 0.7 µM (≈ 1.89 µg/mL) | 1.4 µM (≈ 3.78 µg/mL) | 0.7 µM (≈ 1.89 µg/mL) | 1.4 µM (≈ 3.78 µg/mL) | 0.7 µM (≈ 1.89 µg/mL) | 1.4 µM (≈ 3.78 µg/mL) | > 2000 µg/mL and > 742 µM | >741.5 µM |  |  |  |  | > 742 µM | 
CC(=O)N[C@H](CCCCN)C(=O)N[C@H](CC(C)C)C(=O)N[C@H](CN)C(=O)N[C@H](CO)C(=O)N[C@H](CC(C)C)C(=O)N[C@H](CC(C)C)C(=O)N[C@H](CN)C(=O)N[C@@H](C(=O)N[C@H](CC(C)C)C(=O)N[C@H](CO)C(=O)N[C@H](C)C(=O)N[C@H](C)C(=O)N[C@H](CCCCN)C(=O)N[C@H](CN)C(=O)N[C@H](CN)C(=O)N[C@H](CCCCN)C(=O)N[C@H](CC(C)C)C(=O)N[C@H](C)C(=O)N[C@@H](C(=O)N[C@H](CC(C)C)C(=O)N[C@H](CC(C)C)C(=O)N[C@H](CN)C(=O)N[C@H](C)C(=O)N[C@H](CC(C)C)C(=O)N[C@H](CO)C(=O)N[C@H](CN)C(N)=O)[C@H](C)O)[C@H](C)O [Peptide D106, Ac-KL(Dpr)SLL(Dpr)TLSAAK(Dpr)(Dpr)KLATLL(Dpr)ALs(Dpr)-amide] (Ac-[dK][dL][dDap][dS][dL][dL][dDap][dT][dL][dS][dA][dA][dK][dDap][dDap][dK][dL][dA][dT][dL][dL][dDap][dA][dL][dS][dDap]-NH2) | 0.8 µM (≈ 2.09 µg/mL) | 0.8 µM (≈ 2.09 µg/mL) | 1.5 µM (≈ 3.92 µg/mL) | 0.8 µM (≈ 2.09 µg/mL) | 0.8 µM (≈ 2.09 µg/mL) | 0.4 µM (≈ 1.05 µg/mL) | 0.8 µM (≈ 2.09 µg/mL) | 889 µg/mL and 340 µM | 340.2 µM |  |  |  |  |  | 
CC(=O)N[C@H](CCCCN)C(=O)N[C@H](CC(C)C)C(=O)N[C@H](CCCCN)C(=O)N[C@H](CO)C(=O)N[C@H](CC(C)C)C(=O)N[C@H](CC(C)C)C(=O)N[C@H](CCCCN)C(=O)N[C@@H](C(=O)N[C@H](CC(C)C)C(=O)N[C@H](CO)C(=O)N[C@H](CCCCN)C(=O)N[C@H](C)C(=O)N[C@H](CCCCN)C(=O)N[C@H](C)C(=O)N[C@H](C)C(=O)N[C@H](CCCCN)C(=O)N[C@H](CC(C)C)C(=O)N[C@H](CCCCN)C(=O)N[C@@H](C(=O)N[C@H](CC(C)C)C(=O)N[C@H](CC(C)C)C(=O)N[C@H](CCCCN)C(=O)N[C@H](C)C(=O)N[C@H](CC(C)C)C(=O)N[C@H](CO)C(=O)N[C@H](CCCCN)C(N)=O)[C@H](C)O)[C@H](C)O [Peptide D84, Ac-KL(Lys)SLL(Lys)TLS(Lys)AKAAKL(Lys)TLL(Lys)ALS(Lys)-amide] | 0.3 µM (≈ 0.86 µg/mL) | 0.7 µM (≈ 2.01 µg/mL) | 0.3 µM (≈ 0.86 µg/mL) | 0.7 µM (≈ 2.01 µg/mL) | 0.7 µM (≈ 2.01 µg/mL) | 0.3 µM (≈ 0.86 µg/mL) | 0.7 µM (≈ 2.01 µg/mL) | 156 µg/mL |  |  |  |  |  |  | 
